The numbers were not newly measured in patent publication US20050070512A1, “Pharmaceutical composition and methods comprising combinations of 2-alkylidene-19-nor-vitamin D derivatives and an estrogen agonist/antagonist” (Pfizer Inc, priority 2003, published 2005), which cites them from elsewhere.

In the series the test system is HL-60 cells.

Consider `C=C1[C@H](O)CC(=C/C=C2\CCC[C@]3(C)[C@@H]([C@H](C)CCCC(C)(C)O)CC[C@@H]23)C[C@H]1O` [2-Methylene-19-Nor-1,25-(OH)2D3, 1α,25-dihydroxy-2-methylene-19-nor-vitamin D3], for which the “Induction of differentiation of HL-60 cells to the monocyte (in words)” value is recorded as “activity similar to 1,25-(OH)2D3”.
As to `C=C1[C@H](O)CC(=C/C=C2\CCC[C@]3(C)[C@@H]([C@@H](C)CCCC(C)(C)O)CC[C@@H]23)C[C@H]1O` [2-Methylene-19-Nor-20S-1,25-(OH)2D3, (20S)-1α,25-dihydroxy-2-methylene-19-nor-vitamin D3], the “Induction of differentiation of HL-60 cells to the monocyte (in words)” value is recorded as “extremely potent”.
